Like-named read-outs stand apart in the source and are kept apart here. Bounds are passed on as bounds.

The text below walks through data of patent US7524864B2, “Methods of treating sleep disorders” (Hypnion, Inc., priority 2004, dated 2009).

In experiment [1] the target is T1, human recombinant M1 expressed in CHO cells (Homo sapiens, UniProt P11229).
T1 construct: purchased PerkinElmer, Inc., Wellesley, Mass; host or cells: CHO cells
T1 sequence (P11229 1-460): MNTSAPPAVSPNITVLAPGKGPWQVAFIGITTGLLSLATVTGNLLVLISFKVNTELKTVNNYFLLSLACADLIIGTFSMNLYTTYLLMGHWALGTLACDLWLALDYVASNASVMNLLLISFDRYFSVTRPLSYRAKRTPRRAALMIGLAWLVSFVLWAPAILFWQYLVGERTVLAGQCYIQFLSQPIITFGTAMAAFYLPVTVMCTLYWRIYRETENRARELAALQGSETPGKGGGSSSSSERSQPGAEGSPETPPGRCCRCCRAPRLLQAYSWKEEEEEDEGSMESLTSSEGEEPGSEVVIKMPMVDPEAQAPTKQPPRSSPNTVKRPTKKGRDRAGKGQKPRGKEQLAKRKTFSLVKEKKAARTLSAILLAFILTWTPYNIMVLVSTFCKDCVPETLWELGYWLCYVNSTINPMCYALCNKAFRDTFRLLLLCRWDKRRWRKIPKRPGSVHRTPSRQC
The following applies: reference compounds; read-out: Ki of reference compounds in M1 binding assay; cited from earlier work.

Experiment [2] has as its target T2, human recombinant M3 expressed in CHO cells (Homo sapiens, UniProt P20309).
T2 construct: purchased PerkinElmer, Inc., Wellesley, Mass; host or cells: CHO cells
The experiment in a line: M3 muscarinic receptor binding assay ([3H]-scopolamine, N-methyl chloride displacement). The settings on record: Table 5; read-out: M3 inhibition constant Ki.

For another experiment, the target named is T3, H1 receptor (Bos taurus, UniProt P30546).
T3 construct: the receptors are obtained from bovine cerebellar membrane tissue; from tissue; host or cells: bovine cerebellar membranes
T3 sequence (P30546 whole entry): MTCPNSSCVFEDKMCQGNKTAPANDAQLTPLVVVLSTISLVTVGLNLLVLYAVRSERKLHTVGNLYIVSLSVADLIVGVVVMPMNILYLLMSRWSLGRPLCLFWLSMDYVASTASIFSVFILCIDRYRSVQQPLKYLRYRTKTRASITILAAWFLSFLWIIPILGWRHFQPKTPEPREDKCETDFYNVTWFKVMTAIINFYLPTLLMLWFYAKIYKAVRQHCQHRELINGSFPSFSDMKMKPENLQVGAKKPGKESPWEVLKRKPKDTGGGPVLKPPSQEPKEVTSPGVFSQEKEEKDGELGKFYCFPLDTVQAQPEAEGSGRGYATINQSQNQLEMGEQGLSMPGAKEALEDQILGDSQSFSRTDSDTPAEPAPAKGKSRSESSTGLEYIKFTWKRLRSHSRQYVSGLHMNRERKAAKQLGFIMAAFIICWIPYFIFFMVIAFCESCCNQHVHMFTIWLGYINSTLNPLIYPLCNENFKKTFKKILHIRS
Put plainly: H1 histamine receptor competitive binding assay ([3H]pyrilamine displacement). Set-up: species or system bovine.

Experiment [3] has as its target T4, human recombinant M2 expressed in CHO cells (Homo sapiens, UniProt P08172).
T4 construct: purchased PerkinElmer, Inc., Wellesley, Mass; host or cells: CHO cells
T4 sequence (P08172 1-466): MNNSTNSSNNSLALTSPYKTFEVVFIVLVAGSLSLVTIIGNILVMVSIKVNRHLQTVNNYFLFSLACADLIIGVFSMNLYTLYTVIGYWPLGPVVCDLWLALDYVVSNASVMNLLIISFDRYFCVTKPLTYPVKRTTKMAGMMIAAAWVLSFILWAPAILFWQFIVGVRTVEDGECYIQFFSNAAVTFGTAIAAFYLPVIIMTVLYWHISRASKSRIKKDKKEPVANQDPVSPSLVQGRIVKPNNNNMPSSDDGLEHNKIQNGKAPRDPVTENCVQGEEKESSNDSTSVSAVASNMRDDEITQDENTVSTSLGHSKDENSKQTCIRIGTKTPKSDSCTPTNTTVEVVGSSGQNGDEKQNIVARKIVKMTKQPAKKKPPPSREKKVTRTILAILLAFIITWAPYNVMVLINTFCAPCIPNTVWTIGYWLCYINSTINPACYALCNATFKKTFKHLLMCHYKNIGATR
Put plainly: M2 muscarinic receptor binding assay ([3H]-scopolamine, N-methyl chloride displacement). The settings on record: Table 5; read-out: M2 inhibition constant Ki.

The test system of experiment [4] is sleep (NREM, LUSB) in male Wistar rats. Put plainly: Sleep-wakefulness monitoring (SCORE-2000, EEG/EMG) in male Wistar rats. Type of experiment: in vivo, rat. The following applies: oral, CT-18. Here is the method: Sleep-wakefulness, locomotor activity and body temperature are monitored in male Wistar rats treated with a test compound (i.e., doxepin analog) initially at a concentration of 10 mg/kg. Higher and lower doses are assayed for select compounds (e.g., as high as 45 mg/kg, and as low as necessary to establish a no-effect dose). Treatments are administered at CT-18, the peak of the activity dominated period (6 hours after lights-off), and produced soporific (sleep-inducing) effects characterized by increased non-REM sleep time, increased sleep continuity, but without evidence of REM sleep inhibition or rebound insomnia.
Sleep-wakefulness, locomotor activity and body temperature are monitored in vivo with the disclosed sleep-inducing agents. Adult, male Wistar rats (250 g at time of surgery, Charles River Laboratories, Wilmington Mass.) were anesthetized (2% isoflourane in medical grade oxygen) and surgically prepared with a cranial implant to permit chronic electro-encephalogram (EEG) and electromyogram (EMG) recording. Body temperature and locomotor activity were monitored via a miniature transmitter (Mini-Mitter, Bend, Oreg.) surgically placed in the abdomen. The cranial implant consisted of stainless steel screws (two frontal [+3.2 AP from bregma, ±2.0 ML] and two occipital [−6.9 AP, ±5.5 ML]) for EEG recording. Two Teflon®-coated stainless steel wires were positioned under the nuchal trapezoid muscles for EMG recording. All leads were soldered to a miniature connector prior to surgery, and gas sterilized in ethylene oxide. The implant assembly was affixed to the skull with dental acrylic. A minimum of three weeks was allowed for surgical recovery.
Each rat is permanently housed in its own individual recording cage located within separate, ventilated compartments of custom-designed stainless steel cabinets. Each cage is enhanced with a filter-top riser and low-torque swivel-commutator. Food and water are available ad libitum. A 24-hr light-dark cycle (12 hours light, 12 hours dark) is maintained throughout the study. Animals are undisturbed for at least 48 hours before and after treatments.
Sleep and wakefulness is determined using “SCORE-2000™”(Hypnion, Worcester, Mass.)—an internet-based sleep-wake and physiological monitoring system. The system monitored amplified EEG (bandpass 1-30 Hz), integrated EMG (bandpass 10-100 Hz), body temperature and non-specific locomotor activity (LMA) via telemetry, and drinking activity, continuously and simultaneously. Arousal states are classified on-line as non-REM (NREM) sleep, REM sleep, wake, or theta-dominated wake every 10 seconds. Total drinking and locomotor activity counts, and body temperature were quantitiated and recorded each minute, using EEG feature extraction and pattern-matching algorithms. […] The classification algorithm used individually-taught EEG-arousal-state templates, plus EMG criteria to differentiate REM sleep from theta-dominated wakefulness, plus behavior-dependent contextual rules (e.g., if the animal was drinking, it is awake). Drinking and locomotor activity intensity (LMA) are recorded as discrete events every 10 seconds, while body temperature was recorded each minute. Locomotor activity was detected by a telemetry receiver (Mini-Mitter) beneath the cage. Telemetry measures (LMA and body temperature) are not part of the scoring algorithm; thus, sleep-scoring and telemetry data were independent measures.
Compounds are administered at CT-18, the peak of the activity-dominated period, in order to ensure prior wakefulness is sufficient to interact positively with hypnotic-drug effects, and sufficient time is allowed to view the time course of the treatment effect before lights-on (6 hours post-treatment). Compounds are suspended in sterile 0.25% or 0.5% methylcellulose (1-2 ml/kg). Treatments are administered orally as a bolus.
A parallel group study design is employed. […]

The target in experiment [5] is T1, human recombinant M1 expressed in CHO cells. Put plainly: M1 muscarinic receptor binding assay ([3H]-scopolamine, N-methyl chloride displacement). The following applies: Table 5; read-out: M1 inhibition constant Ki.

T2 sequence (P20309 whole entry): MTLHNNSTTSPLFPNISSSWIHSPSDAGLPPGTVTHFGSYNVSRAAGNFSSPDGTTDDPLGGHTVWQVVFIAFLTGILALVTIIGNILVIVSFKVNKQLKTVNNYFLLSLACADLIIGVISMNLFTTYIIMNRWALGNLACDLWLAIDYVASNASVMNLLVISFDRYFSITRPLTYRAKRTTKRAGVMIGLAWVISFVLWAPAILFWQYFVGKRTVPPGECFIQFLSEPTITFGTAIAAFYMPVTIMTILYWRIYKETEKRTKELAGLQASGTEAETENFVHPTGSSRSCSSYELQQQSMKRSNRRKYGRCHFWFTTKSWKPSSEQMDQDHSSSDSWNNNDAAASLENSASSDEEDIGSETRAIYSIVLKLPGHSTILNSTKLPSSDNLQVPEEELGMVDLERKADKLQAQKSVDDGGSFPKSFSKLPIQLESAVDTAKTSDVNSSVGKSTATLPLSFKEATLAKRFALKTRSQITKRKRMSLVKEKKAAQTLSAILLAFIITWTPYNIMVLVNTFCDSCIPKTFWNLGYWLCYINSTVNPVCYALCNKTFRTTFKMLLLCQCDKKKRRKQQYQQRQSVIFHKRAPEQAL

As for `C[N+]1(C)CCC(OC(=O)C(c2ccccc2)c2ccccc2)CC1` [4-DAMP methiodide], the inhibition constant (Ki) in experiment [1] is 0.27 nM.

Regarding `CC(C)(CN1CCC(=C2c3ccc(F)cc3CSc3ccccc32)CC1)C(=O)O.Cl` [Compound 8], the Ki was greater than 10000 nM in experiment [2]; 50.6 nM at H1 receptor (bovine H1, Table 5, read-out: H1 (bovine) inhibition constant Ki); greater than 10000 nM in experiment [3]; greater than 10000 nM in experiment [5]. Also, on H1 receptor (H1 versus M1, M2, M3 Ki), the “specificity for H1 over the muscarinic receptors” value is on record as “specific for H1 over the muscarinic receptors”. In addition, the “LUSB (longest uninterrupted sleep bout)” value in experiment [4] (3 mg/kg) amounted to 4.7 ± 3.2 min; in experiment [4] (10 mg/kg), 6.3 ± 1.7 min; in experiment [4] (30 mg/kg), 10.9 ± 2.3 min; in experiment [4] (56 mg/kg) it was 9.3 ± 2.2 min; in experiment [4] (100 mg/kg), 13.2 ± 2.8 min. The NREM in experiment [4] (10 mg/kg) is 20 ± 5 min; in experiment [4] (30 mg/kg), 41 ± 9 min; in experiment [4] (56 mg/kg) it was 57 ± 7 min; in experiment [4] (100 mg/kg), 52 ± 8 min.

In general, Ki refers to a measure of affinity in units of concentration, obtained from inhibition or displacement.
